From US4894173A, “Divalent ion tolerant aromatic sulfonates” (The Standard Oil Company, priority 1988, dated 1990) come the findings set out here.

What all share (type): physicochemical
Series [1] in a line: Surface tension (lowering of the air/water surface tension), Table 2. To be noted: 10 mEq/L, deionized water, 22° C. On the procedure: The surface activity - lowering of the air/water surface tension - of the
surfactants was also measured. Surface tensions were measured at a
surfactant concentration of 10 milliequivalents/L in deionized water at
22° C. or a Fisher Autotensiomat (de Nouy ring) apparatus. At this
concentration, all the surfactants should be above their critical micell
^f Of a 10 mEq/L solution of surfactant at 22° C.

A short description of series [2]: Calcium-ion tolerance (calcium precipitation) test. To be noted: for Calcium Precipitation (ppm CA^2+): 10 mEq/L surfactant titrated with 5 M CaCl2 until transmittance (600 nm) 80% of initial; for Calcium Precipitation (ppm CA^2+), lower concentration / Calcium Precipitation (ppm CA^2+), higher concentration: 10 mEq/L; for Calcium Precipitation (ppm CA^2+), lower concentration: one component apparently precipitates at the lower calcium ion concentration; for Calcium Precipitation (ppm CA^2+), higher concentration: remainder precipitates at the higher calcium concentration. On the procedure:
Calcium-ion tolerance tests were conducted to quantify the relative solubility of the surfactants in the presence of divalent ions (see Table 2). All of the surfactants of this invention tolerated calcium ion concentrations from 28 to 10,000 times higher than the comparative examples.
^e A 10 mEq/L solution of Surfactant was titrated with 5 M CaCl2
solution until the transmittance of the solution (600 nm) was reduced to
80% of the initial value.
^g One component apparently precipitates out at the lower calcium ion
concentration and the reminder at the higher calcium concentration.

Series [3] in a line: 60° C. solubility in deionized (distilled) water and in seawater. Further details: key to 60° C. Solubility (@ mEq/L), H2O / 60° C. Solubility (@ mEq/L), Seawater: S: completely soluble; P: partially soluble; I: insoluble; T: turbid solution. On the procedure:
As mentioned above, surfactants for EOR must be compatible with divalent ion containing brines such as seawater. Solubility tests were carried out in both deionized water and in seawater. The surfactants of this invention (Examples 1-5) were all soluble in seawater. […] A commercial sulfonate (SDBS, Comparative Example 3) was insoluble in seawater. All surfactants were soluble in distilled water.
^ d S = completely soluble P = partially soluble I = insoluble T =

A short description of series [4]: Thermal stability at 90° C.; surfactant activity by two-phase titration. To be noted: for Surfactant Activity (%): 90° C.; for appearance: aged at 90° C. On the procedure: Surfactant solutions were prepared in distilled water, 1.2M sodium hydroxide, and 1.2M hydrochloric acid. These solutions were aged at 90° C. Samples were withdrawn at regular interval and surfactant activity was determined by two-phase titration.

Series [5] can be described thus: Surface tension by Du Nouy ring method at varied calcium ion concentration, Table 3. On the procedure:
(§1) Surface tensions (in dynes/cm) were measured using the Du Nouy ring method. The reported surface tensions are for 10 meq/L surfactant solutions: which is above the CMC (critical micelle concentration). The CMC's (in meq/L) were determined by examination of surface tension vs. surfactant concentration curves.

Series [6] is described as follows: Divalent ion tolerance as stated in the description. To be noted: divalent ion concentration tolerated / stable to.
Series [7] is described as follows: Foam formation/stability, simple version of the Ross-Miles foam test. To be noted: 10 meq/L. As for the experimental part:
Foam tests were conducted using a simple version of the Ross-Miles foam test. The initial (0 min) foam volume for SDBS was assigned a value of 100. All other foam volumes were related to this value.

Series [8] in a line: CMC (critical micelle concentration) from surface tension vs. surfactant concentration curves. To be noted: calcium ion concentration 0. On the procedure: as §1

Regarding `CCCCCCCCCCCCc1ccc(O)c(S(=O)(=O)O)c1` [Comparative Example 1], in series [1], the “Surface Tension” value is 23.4 Dyne/cm. The “Calcium Precipitation (ppm CA^2+)” value in series [2] is less than 80 ppm. The “60° C. Solubility (@ mEq/L), H2O” value in series [3] (24 mEq/L) is listed as “S”. Further, the “solubility in seawater (in words)” value in series [3] is given as “either insoluble or partially soluble”. Besides, the “60° C. Solubility (@ mEq/L), Seawater” value in series [3] (25 mEq/L) is “I”.
On to `CCCCCCCCCc1ccc(O)c(S(=O)(=O)O)c1` [Comparative Example 2], for which the “Surface Tension” value in series [1] came to 24.9 Dyne/cm. Moreover, in series [2], the “Calcium Precipitation (ppm CA^2+)” value was 160 ppm. For the same compound, the “60° C. Solubility (@ mEq/L), H2O” value in series [3] (30 mEq/L) was “S,T”. The “solubility in seawater (in words)” value in series [3] is recorded as “either insoluble or partially soluble”. Besides, the “60° C. Solubility (@ mEq/L), Seawater” value in series [3] (28 mEq/L) is “P”.
`CCCCCCC(CO)CCC(C)c1ccc(S(=O)(=O)O)cc1` (stereo not shown) [Example 1]: the “Surface Tension” value in series [1] worked out at 25.1 Dyne/cm. The “Calcium Precipitation (ppm CA^2+)” value in series [2] worked out at 2800 ppm. In addition, the “60° C. Solubility (@ mEq/L), H2O” value in series [3] (18 mEq/L) was “S”.
For `CCCCCC(CO)CCC(C)c1ccc(S(=O)(=O)O)cc1` (stereo not shown) [Example 2], the “Surface Tension” value in series [1] is 25.6 Dyne/cm. Moreover, in series [2], the “Calcium Precipitation (ppm CA^2+), lower concentration” value was determined as 355 ppm and the Calcium Precipitation (ppm CA^2+), higher concentration was determined as 20000 ppm. In series [3] (35 mEq/L), the “60° C. Solubility (@ mEq/L), H2O” value is recorded as “S”. The “60° C. Solubility (@ mEq/L), Seawater” value in series [3] (34 mEq/L) is recorded as “S”.
With `CCCCCCCCC(CO)CCC(C)c1ccc(S(=O)(=O)O)cc1` (stereo not shown) [Example 3], the “Surface Tension” value in series [1] amounted to 26.4 Dyne/cm. In series [2], the “Calcium Precipitation (ppm CA^2+)” value is listed as 40K. In series [3] (18 mEq/L), the “60° C. Solubility (@ mEq/L), H2O” value was “S”. Further, the “60° C. Solubility (@ mEq/L), Seawater” value in series [3] (27 mEq/L) is “S”.
Turning to `CCCCCCC(CO)Cc1ccc(S(=O)(=O)O)cc1` (stereo not shown) [Example 4], the “Surface Tension” value in series [1] stood at 25.2 Dyne/cm. In series [2], the “Calcium Precipitation (ppm CA^2+), lower concentration” value was determined as 350 ppm and the Calcium Precipitation (ppm CA^2+), higher concentration was found to be 57000 ppm. For the same compound, in series [3] (15 mEq/L), the “60° C. Solubility (@ mEq/L), H2O” value is given as “S”. In addition, in series [3] (26 mEq/L), the “60° C. Solubility (@ mEq/L), Seawater” value is listed as “S”.
Regarding `CCCCCCCCC(CO)Cc1ccc(S(=O)(=O)O)cc1` (stereo not shown) [Example 5], the “Surface Tension” value in series [1] came out at 29.3 Dyne/cm. Moreover, the “Calcium Precipitation (ppm CA^2+)” value in series [2] was 100K. In addition, the “60° C. Solubility (@ mEq/L), H2O” value in series [3] (15 mEq/L) is given as “S”. Further, the “60° C. Solubility (@ mEq/L), Seawater” value in series [3] (27 mEq/L) is listed as “S”.
Turning to sodium dodecylbenzenesulfonate [SDBS], the “Surfactant Activity (%)” value was 100% in series [4] (1.2 M HCl, 0 hr); 92% in series [4] (1.2 M HCl, 305 hr); 59% in series [4] (1.2 M HCl, 500 hr); 41% in series [4] (1.2 M HCl, 720 hr); 1% in series [4] (1.2 M NaOH, 0 hr); 100% in series [4] (distilled water, 0 hr). For the same compound, the “Surfactant Activity (%)” value was determined as 93% in series [4] (distilled water, 330 hr); 93% in series [4] (distilled water, 525 hr); 93% in series [4] (distilled water, 740 hr). Also, the values for the appearance entry in series [4] (1.2 M HCl), in series [4] (1.2 M NaOH) and in series [4] (distilled water) were “ppt”, “ppt” and “clear”, respectively. Further, the “Surface Tension” value in series [5] (10 meq/L surfactant, calcium ion concentration 0) was 29 dynes/cm; in series [1] it was 28.6 Dyne/cm. In addition, the “Surface Tension (observation in words)” value in series [5] (calcium ion concentration 1000 PPM) and in series [5] (calcium ion concentration 10,000 PPM) was “surfactant precipitate” throughout. The divalent ion tolerance in series [6] came to 100 ppm. For the same compound, the “Foam Volume (relative to initial SDBS = 100)” value was found to be 100 in series [7] (0 min); 94 in series [7] (+5 min); 83 in series [7] (+15 min); 77 in series [7] (+30 min); 71 in series [7] (+45 min). The “Calcium Precipitation (ppm CA^2+)” value in series [2] is 90 ppm. Further, the “60° C. Solubility (@ mEq/L), H2O” value in series [3] (27 mEq/L) is on record as “S”. The “solubility in seawater (in words)” value in series [3] was “insoluble”. Further, the “60° C. Solubility (@ mEq/L), Seawater” value in series [3] (27 mEq/L) is on record as “I”. For the same compound, the CMC in series [8] is listed as 1 meq/L.
